Assay results reported in publication PMC10864382, “Targeting yeast topoisomerase II by imidazo and triazoloacridinone derivatives resulting in their antifungal activity” (Scientific Reports, 2024).

Biological target: T1, yeast topoisomerase II (yTOPOII) (Saccharomyces cerevisiae, UniProt P06786)
T1 construct: gene TOP2; purified enzyme, commercial (Inspiralis Limited, UK)
T1 sequence (P06786 1-1428): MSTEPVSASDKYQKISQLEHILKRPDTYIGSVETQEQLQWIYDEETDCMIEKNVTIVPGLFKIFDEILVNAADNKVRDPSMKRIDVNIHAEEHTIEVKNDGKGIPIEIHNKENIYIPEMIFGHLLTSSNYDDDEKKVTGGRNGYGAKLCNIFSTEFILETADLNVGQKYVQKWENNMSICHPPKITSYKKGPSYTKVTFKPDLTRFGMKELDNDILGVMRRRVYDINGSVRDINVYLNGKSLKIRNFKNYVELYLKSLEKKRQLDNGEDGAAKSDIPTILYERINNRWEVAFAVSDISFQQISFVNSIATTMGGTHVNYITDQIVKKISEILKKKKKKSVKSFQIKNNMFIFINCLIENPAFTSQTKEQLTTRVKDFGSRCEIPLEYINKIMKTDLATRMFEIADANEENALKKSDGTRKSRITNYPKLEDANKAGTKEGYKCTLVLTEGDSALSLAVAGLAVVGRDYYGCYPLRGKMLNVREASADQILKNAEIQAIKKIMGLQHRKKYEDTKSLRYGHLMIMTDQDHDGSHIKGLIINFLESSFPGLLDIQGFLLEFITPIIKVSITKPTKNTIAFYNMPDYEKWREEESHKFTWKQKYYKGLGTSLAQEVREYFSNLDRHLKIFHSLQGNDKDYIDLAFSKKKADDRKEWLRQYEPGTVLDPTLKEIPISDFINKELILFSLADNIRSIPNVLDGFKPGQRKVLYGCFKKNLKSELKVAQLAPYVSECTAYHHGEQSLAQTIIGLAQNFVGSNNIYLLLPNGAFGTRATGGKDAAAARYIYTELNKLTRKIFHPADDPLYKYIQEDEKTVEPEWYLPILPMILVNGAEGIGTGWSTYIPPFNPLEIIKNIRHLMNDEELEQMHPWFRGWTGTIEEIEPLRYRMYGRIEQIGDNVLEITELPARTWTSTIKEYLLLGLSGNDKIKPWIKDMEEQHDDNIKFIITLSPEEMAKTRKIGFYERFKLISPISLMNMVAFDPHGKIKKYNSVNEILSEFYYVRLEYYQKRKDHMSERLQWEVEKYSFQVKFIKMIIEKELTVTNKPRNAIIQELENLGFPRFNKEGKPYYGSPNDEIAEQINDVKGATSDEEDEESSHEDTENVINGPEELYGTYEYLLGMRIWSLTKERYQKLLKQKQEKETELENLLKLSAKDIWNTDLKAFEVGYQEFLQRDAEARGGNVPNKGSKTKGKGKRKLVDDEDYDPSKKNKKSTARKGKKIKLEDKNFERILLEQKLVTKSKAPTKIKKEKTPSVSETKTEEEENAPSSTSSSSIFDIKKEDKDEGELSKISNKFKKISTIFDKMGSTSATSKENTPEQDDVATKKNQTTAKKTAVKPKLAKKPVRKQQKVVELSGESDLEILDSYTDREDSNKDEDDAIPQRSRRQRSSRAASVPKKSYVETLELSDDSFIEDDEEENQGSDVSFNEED
Assay: gel-based relaxation of supercoiled plasmid DNA, densitometry
Assay type: biochemical
Excerpt: gel-based relaxation of supercoiled plasmid DNA, densitometry on yeast topoisomerase II (yTOPOII)

Compound `Cc1ccc2c(c1)c(=O)c1c(NCCN)ccc3ncn2c31` [IKE10, 5-[(2-aminoethyl)amino]-8-methyl-6H-imidazo[4,5,1-de]acridin-6-one] has an IC50 of 15.5 ± 1.3 µM.

`COc1ccc2c(c1)c(=O)c1c(NCCCN(C)C)ccc3nnn2c31` [IKE3, 5-[-(3′-Dimethylamino)propylamino]-8-methoxy-6H-[1–3]-triazolo[4,5,l-de]acridin-6-one] gave an IC50 of 13.2 ± 1.1 µM.

With `Cc1ccc2c(c1)c(=O)c1c(NCCCN)ccc3nnn2c31` [IKE6, 5-[-(3′-Aminopropyl)amino]-8-methyl-6H-[1–3]-triazolo[4,5,l-de]acridin-6-one] the IC50 was 10.9 ± 1.1 µM.

`Cc1ccc2c(c1)c(=O)c1c(NCCNC(=O)[C@@H](N)CCCCN)ccc3ncn2c31` [IKE11, N-{2-[(8-methyl-6-oxo-6H-imidazo[4,5,1-de]acridin-5-yl)amino]ethyl}lysinamide] showed an IC50 of 14.9 ± 1.1 µM.

With `COc1ccc2c(c1)c(=O)c1c(NCCNC(=O)[C@@H](N)CCCCN)ccc3ncn2c31` [IKE14, N-{2-[(8-methoxy-6-oxo-6H-imidazo[4,5,1-de]acridin-5-yl)amino]ethyl}lysinamide] the IC50 was 14.7 ± 1.1 µM.

Work on `Cc1ccc2c(c1)c(=O)c1c(NCCCN(C)C)ccc3nnn2c31` [IKE1, 5-[-(3′-Dimethylamino)propylamino]-8-methyl-6H-[1–3]-triazolo[4,5,l-de]acridin-6-one] yielded an IC50 of 13.4 ± 1.1 µM.

`CCN(CC)CCNc1ccc2ncn3c4ccc(O)cc4c(=O)c1c23` [C-1311] gave an IC50 of 16.6 ± 1.3 µM.

In the case of `COc1ccc2c(c1)c(=O)c1c(NCCN)ccc3ncn2c31` [IKE13, 5-[(2-aminoethyl)amino]-8-methoxy-6H-imidazo[4,5,1-de]acridin-6-one], the IC50 is reported as 6.2 ± 1.2 µM.

Work on `NCCNc1ccc2ncn3c4ccc(O)cc4c(=O)c1c23` [IKE12, 5-[(2-aminoethyl)amino]-8-hydroxy-6H-imidazo[4,5,1-de]acridin-6-one] yielded an IC50 of 10.9 ± 1.1 µM.

In the case of `Cc1ccc2c(c1)c(=O)c1c(NCCCNC(=O)[C@@H](N)CCCCN)ccc3nnn2c31` [IKE8, N′-{3-[(8-methyl-6-oxo-6H-[1,2,3]triazolo[4,5,1-de]acridin-5-yl)amino]propyl} lysinamide], the IC50 is reported as 15.2 ± 1.2 µM.

With `COc1ccc2c(c1)c(=O)c1c(NCCCNC(=O)[C@@H](N)CCCCN)ccc3nnn2c31` [IKE7, N′-{3-[(8-methoxy-6-oxo-6H-[1,2,3]triazolo[4,5,1-de]acridin-5-yl)amino]propyl} lysinamide] the IC50 was 13.4 ± 1.1 µM.

For `COc1ccc2c(c1)c(=O)c1c(NCCCN)ccc3nnn2c31` [IKE5, 5-[-(3′-Aminopropyl)amino]-8-methoxy-6H-[1–3]-triazolo[4,5,l-de]acridin-6-one], the IC50 was 7.7 ± 1.1 µM.

With `CCN(CC)CCCNc1ccc2nnn3c4ccc(OC)cc4c(=O)c1c23` [IKE4, 5-[-(3′-Diethylamino)propylamino]-8-methoxy-6H-[1–3]-triazolo[4,5,l-de]acridin-6-one] the IC50 was 13.3 ± 1.2 µM.

In the case of `CCN(CC)CCNc1ccc2ncn3c4ccc(OC)cc4c(=O)c1c23` [C-1330], the IC50 is reported as 13.7 ± 1.1 µM.

In the case of `CN(C)CCCNc1ccc2nnn3c4ccc(O)cc4c(=O)c1c23` [C-1305], the IC50 is reported as 18.2 ± 1.4 µM.

With `CCN(CC)CCCNc1ccc2nnn3c4ccc(C)cc4c(=O)c1c23` [IKE2, 5-[-(3′-Diethylamino)propylamino]-8-methyl-6H-[1–3]-triazolo[4,5,l-de]acridin-6-one] the IC50 was 13.3 ± 1.1 µM.
